Key:
Test in all cases: relative viability (nuclei count vs DMSO), 5 days (fraction); higher = more cells survive
[1] = compound: C1=CC2=C(C=C(C(=C2N=C1)O)N=NC3=CC4=C(C=C3)C=C(C=C4)S(=O)(=O)O)S(=O)(=O)O + CS(=O)(=O)CCNCc1ccc(-c2ccc3ncnc(Nc4ccc(OCc5cccc(F)c5)c(Cl)c4)c3c2)o1 [Lapatinib] (partner 2 µM)
Method in brief: (§1)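 A single step with final 0.05% Triton X-100, 1% formaldehyde and 1 ug/ml Hoechst fixed the cells and stained nuclei 5 days after treatment. Lung cancer cell lines in 1536-well plates had been treated by pin tool the day after seeding with one drug alone or a fixed anchor-drug dose plus five library-drug doses (not always all listed) in √10 steps, and nuclei were counted on 4× images. Relative viability is the ratio of nuclei in treated wells to nuclei in vehicle wells, taken as the median of duplicate plates.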

[2] = compound: C1=CC2=C(C=C(C(=C2N=C1)O)N=NC3=CC4=C(C=C3)C=C(C=C4)S(=O)(=O)O)S(=O)(=O)O + CC1(C)CCC(c2ccc(Cl)cc2)=C(CN2CCN(c3ccc(C(=O)NS(=O)(=O)c4ccc(N[C@H](CCN5CCOCC5)CSc5ccccc5)c(S(=O)(=O)C(F)(F)F)c4)cc3)CC2)C1 [Navitoclax] (partner 0.5 µM)
Method in brief: as §1

AT-7519 + Luminespib = compound: O=C(NC1CCNCC1)c1n[nH]cc1NC(=O)c1c(Cl)cccc1Cl [AT-7519] + CCNC(=O)c1noc(-c2cc(C(C)C)c(O)cc2O)c1-c1ccc(CN2CCOCC2)cc1 [Luminespib] (partner 0.01 µM)
Method in brief: as §1

AT-7519 + Dasatinib = compound: O=C(NC1CCNCC1)c1n[nH]cc1NC(=O)c1c(Cl)cccc1Cl [AT-7519] + Cc1nc(Nc2ncc(C(=O)Nc3c(C)cccc3Cl)s2)cc(N2CCN(CCO)CC2)n1 [Dasatinib] (partner 0.075 µM)
Method in brief: as §1

Row | Cell Line | relative viability ([1]; first compound 0.08 µM) | relative viability ([1]; first compound 0.253 µM) | relative viability ([1]; first compound 0.8 µM) | relative viability ([1]; first compound 2.53 µM) | relative viability ([1]; first compound 8 µM) | relative viability ([2]; first compound 0.08 µM) | relative viability ([2]; first compound 0.253 µM) | relative viability ([2]; first compound 0.8 µM) | relative viability ([2]; first compound 2.53 µM) | relative viability ([2]; first compound 8 µM) | relative viability (AT-7519 + Luminespib; first compound 0.01 µM) | relative viability (AT-7519 + Luminespib; first compound 0.03162 µM) | relative viability (AT-7519 + Luminespib; first compound 0.3162 µM) | relative viability (AT-7519 + Luminespib; first compound 1 µM) | relative viability (AT-7519 + Dasatinib; first compound 0.01 µM) | relative viability (AT-7519 + Dasatinib; first compound 0.03162 µM) | relative viability (AT-7519 + Dasatinib; first compound 0.3162 µM) | relative viability (AT-7519 + Dasatinib; first compound 1 µM)
1 | NCI-H1975 | 1.08 | 0.883 | 0.833 | 0.987 | 0.861 | 1.3 | 1.13 | 1.07 | 1.26 | 0.979 | 0.21 | 0.176 | 0.317 | 0.126 | 0.341 | 0.341 | 0.384 | 0.127
2 | CAL-12T | 0.593 | 0.58 | 0.629 | 0.63 | 0.663 | 1.2 | 1.45 | 1.14 | 1.5 | 1.35 | 0.438 | 0.509 | 0.15 | 0.0831 | 0.532 | 0.404 | 0.214 | 0.0899
3 | NCI-H1623 |  |  |  |  |  |  |  |  |  |  | 0.534 | 0.449 | 0.397 | 0.307 | 0.58 | 0.646 | 0.63 | 0.604
4 | HCC-44 | 1.08 | 0.975 | 0.96 | 1.05 | 1.09 | 1.03 | 0.863 | 1.01 | 1.02 | 0.969 | 1.13 | 1.03 | 0.636 | 0.235 |  |  |  | 
5 | EKVX | 0.215 | 0.215 | 0.172 | 0.208 | 0.219 | 0.985 | 0.868 | 0.867 | 0.98 | 1.02 | 0.988 | 0.845 | 0.846 | 0.774 | 0.526 | 0.388 | 0.346 | 0.449
6 | NCI-H1703 | 1.36 | 0.886 | 1.06 | 1.01 | 1.01 | 1.02 | 1.16 | 1.12 | 1.27 | 1.13 |  |  |  |  |  |  |  | 
7 | Calu-6 | 1.16 | 1.03 | 1.01 | 1.02 | 1.03 | 0.848 | 0.916 | 0.769 | 0.952 | 0.802 |  |  |  |  |  |  |  | 
8 | EBC-1 | 0.202 | 0.242 | 0.27 | 0.2 | 0.238 | 0.394 | 0.474 | 0.415 | 0.452 | 0.371 |  |  |  |  |  |  |  | 
9 | NCI-H358 | 0.436 | 0.393 | 0.469 | 0.486 | 0.483 |  |  |  |  |  | 0.326 | 0.267 | 0.24 | 0.224 | 0.15 | 0.163 | 0.161 | 0.119
10 | HCC-78 | 0.763 | 0.625 | 0.702 | 0.922 | 0.192 | 0.776 | 0.667 | 0.879 | 0.826 | 0.757 |  |  |  |  | 0.368 | 0.397 | 0.335 | 0.364
11 | IA-LM | 0.681 | 0.718 | 0.707 | 0.796 | 0.793 | 0.769 | 0.885 | 0.819 | 0.75 | 0.694 |  |  |  |  |  |  |  | 
12 | NCI-H650 | 0.91 | 0.786 | 0.838 | 0.86 | 0.525 |  |  |  |  |  | 0.75 | 0.7 | 0.838 | 0.611 | 0.437 | 0.423 | 0.465 | 0.488
13 | ChaGo-K-1 |  |  |  |  |  | 0.933 | 0.955 | 0.968 | 1.06 | 1 | 0.607 | 0.544 | 0.669 | 0.522 | 0.583 | 0.501 | 0.611 | 0.543
14 | NCI-H2342 |  |  |  |  |  |  |  |  |  |  | 0.646 | 0.759 | 0.613 | 0.587 | 0.328 | 0.277 | 0.314 | 0.313
15 | NCI-H1299 | 0.959 | 0.913 | 0.944 | 0.956 | 0.939 | 1.09 | 1.05 | 0.976 | 1.08 | 1.06 |  |  |  |  |  |  |  | 
16 | SW 900 |  |  |  |  |  |  |  |  |  |  | 0.171 | 0.183 | 0.173 | 0.179 | 0.715 | 0.568 | 0.642 | 0.254
17 | NCI-H522 |  |  |  |  |  |  |  |  |  |  | 1.01 | 1.07 | 1.31 | 0.959 |  | 0.864 | 0.841 | 0.956
18 | HCC-366 | 1.13 | 0.954 | 1.03 | 1.02 | 1.02 | 1.07 | 0.839 | 0.977 | 1.07 | 1.07 |  |  |  |  | 0.729 | 0.571 | 0.435 | 0.308
19 | A549 | 1.08 | 0.991 | 0.972 | 0.947 | 1.01 | 1.18 | 1.16 | 1.27 | 1.17 | 0.934 |  |  |  |  |  |  |  | 
20 | NCI-H661 | 0.541 | 0.49 | 0.431 | 0.626 | 0.49 |  |  |  |  |  | 1.01 | 0.92 | 0.975 | 0.219 | 0.732 | 0.849 | 0.71 | 0.392
21 | NCI-H1563 | 0.957 | 1.02 | 0.916 | 0.976 | 1.13 |  |  |  |  |  | 0.526 | 0.542 | 0.599 | 0.538 | 0.467 | 0.418 | 0.435 | 0.434
22 | ABC-1 | 1.25 | 0.989 | 1.08 | 1.18 | 1.02 |  |  |  |  |  | 0.75 | 0.582 | 0.347 | 0.206 | 0.525 | 0.617 | 0.398 | 0.262
23 | LCLC-103H |  |  |  |  |  |  |  |  |  |  | 1.06 | 0.953 | 0.955 | 0.867 | 0.533 | 0.388 | 0.451 | 0.54
24 | NCI-H441 |  |  |  |  |  | 0.706 | 0.573 |  | 0.479 | 0.431 | 0.424 | 0.367 | 0.313 | 0.242 | 0.574 | 0.654 | 0.421 | 0.324
